Data as given in the supplement of paper PMC11208160.

Assay: recombinant barcode read abundance after kanamycin selection (control-corrected) (log10(CPM+1)); higher = more efficient recombination; sequences stand for … in AGTGCAGAGAAAATCGGCCAGTTTTCTCTGCCTGCAGTCCGCATGCCGT…AGATTTATGCAGCGGACTGCCTTTCTCCCAAAGTGATAAACCGGACAGTATCATGGACCGGTTTTCCCGGTAATCCGTATTTGCAAGGTTGGTTTCACT; site = the 11-nt target
Procedure, shortened: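 Recombination efficiency comes from barcode counts at recombinant junctions, converted to counts per million, averaged and corrected against the control. Values appear as log10(CPM+1). They were obtained from a pooled E. coli screen in which each oligo paired a target with an IS621 bridge RNA target-binding loop, and cells were plated in duplicate on chloramphenicol/ampicillin LB agar or on chloramphenicol/ampicillin/kanamycin with 0.1 mM IPTG.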
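Note: IS621 recombinase and bridge RNA in Escherichia coli cells.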

For “CGGTGAACTTGGGTTCTAACCTGTTGCCT (site CTGTGAACTAG)”, which “recombinant barcode read abundance (log10)” value is on record?
The value was 0.146.

With “CGTAAGCCTTGGGTTCTAACCTGTTGCAT (site CGCAAGCCTAT)” as the sequence, how does the “recombinant barcode read abundance (log10)” value read?
The value was 0.265.

Which “recombinant barcode read abundance (log10)” value does the source give for “CGTAAGCCTTGGGTTCTAACCTGTTGCAT (site CGTAAGCCTAT)” here?
Its value is 0.57.

With “CGTAGAGCTTGGGTTCTAACCTGTTGCCT (site AGTAGAACTAG)” as the sequence, how does the “recombinant barcode read abundance (log10)” value read?
The value was 0.0247.

For “CGTAGAGCTTGGGTTCTAACCTGTTGCCT (site CGTAGAGCTAG)”, which “recombinant barcode read abundance (log10)” value is on record?
Its value is 0.349.

With “CGTAGCTCTTGGGTTCTAACCTGTTGCCT (site CGAAGCTCTAG)” as the sequence, how does the “recombinant barcode read abundance (log10)” value read?
Its value is 0.133.

With “CGTAGCTCTTGGGTTCTAACCTGTTGCCT (site CGCAGCTCTAG)” as the sequence, how does the “recombinant barcode read abundance (log10)” value read?
Its value is 0.128.

Which “recombinant barcode read abundance (log10)” value does the source give for “CGTAGCTCTTGGGTTCTAACCTGTTGCCT (site CGGAGCTCTAG)” here?
The value was 0.134.

With “CGTAGCTCTTGGGTTCTAACCTGTTGCCT (site CGTAGCTCTAG)” as the sequence, how does the “recombinant barcode read abundance (log10)” value read?
The value was 0.516.

Which “recombinant barcode read abundance (log10)” value does the source give for “CGTATCACTTGGGTTCTAACCTGTTGCCT (site CCGATCACTAG)” here?
The value was 0.0447.

Which “recombinant barcode read abundance (log10)” value does the source give for “CGTATCACTTGGGTTCTAACCTGTTGCCT (site CGTATCACTAG)” here?
Its value is 0.0527.

Which “recombinant barcode read abundance (log10)” value does the source give for “CGTATGGCTTGGGTTCTAACCTGTTGCCT (site CGTATGGCTAG)” here?
The value was 0.349.

With “CGTATGGCTTGGGTTCTAACCTGTTGCCT (site CGTGGGGCTAG)” as the sequence, how does the “recombinant barcode read abundance (log10)” value read?
Its value is 0.279.

With “CGTCACCCTTGGGTTCTAACCTGTTGCCT (site CGTCAACCTAG)” as the sequence, how does the “recombinant barcode read abundance (log10)” value read?
Its value is 0.0616.

Which “recombinant barcode read abundance (log10)” value does the source give for “CGTCACCCTTGGGTTCTAACCTGTTGCCT (site CGTCACCCTAG)” here?
The value was 0.173.

Which “recombinant barcode read abundance (log10)” value does the source give for “CGTCACCCTTGGGTTCTAACCTGTTGCCT (site CGTCAGCCTAG)” here?
Its value is 0.12.

With “CGTCACCCTTGGGTTCTAACCTGTTGCCT (site CGTCATCCTAG)” as the sequence, how does the “recombinant barcode read abundance (log10)” value read?
The value was 0.126.

With “CGTCAGACTTGGGTTCTAACCTGTTGCCT (site CGTAAGACTAG)” as the sequence, how does the “recombinant barcode read abundance (log10)” value read?
Its value is 0.

Which “recombinant barcode read abundance (log10)” value does the source give for “CGTCAGACTTGGGTTCTAACCTGTTGCCT (site CGTCAGACTAG)” here?
The value was 0.109.

Which “recombinant barcode read abundance (log10)” value does the source give for “CGTCAGACTTGGGTTCTAACCTGTTGCCT (site CGTGAGACTAG)” here?
Its value is 0.212.

With “CGTCAGACTTGGGTTCTAACCTGTTGCCT (site CGTTAGACTAG)” as the sequence, how does the “recombinant barcode read abundance (log10)” value read?
Its value is 0.

Which “recombinant barcode read abundance (log10)” value does the source give for “CGTCTACCTTGGGTTCTAACCTGTTGCTT (site AGTCTACCTAA)” here?
Its value is 0.297.

With “CGTCTACCTTGGGTTCTAACCTGTTGCTT (site CGTCTACCTAA)” as the sequence, how does the “recombinant barcode read abundance (log10)” value read?
Its value is 0.242.

For “CGTCTCCCTTGGGTTCTAACCTGTTGCTT (site CGTATCCCTCA)”, which “recombinant barcode read abundance (log10)” value is on record?
The value was 0.108.

With “CGTCTCCCTTGGGTTCTAACCTGTTGCTT (site CGTCTCCCTAA)” as the sequence, how does the “recombinant barcode read abundance (log10)” value read?
Its value is 0.162.

For “CGTGAACCTTGGGTTCTAACCTGTTGCGT (site CGTAAACCTAC)”, which “recombinant barcode read abundance (log10)” value is on record?
Its value is 2.19.

With “CGTGAACCTTGGGTTCTAACCTGTTGCGT (site CGTCAACCTAC)” as the sequence, how does the “recombinant barcode read abundance (log10)” value read?
Its value is 0.34.

With “CGTGAACCTTGGGTTCTAACCTGTTGCGT (site CGTGAACCTAC)” as the sequence, how does the “recombinant barcode read abundance (log10)” value read?
The value was 2.79.

With “CGTGAACCTTGGGTTCTAACCTGTTGCGT (site CGTTAACCTAC)” as the sequence, how does the “recombinant barcode read abundance (log10)” value read?
Its value is 0.751.

For “CGTGCGGCTTGGGTTCTAACCTGTTGCCT (site AGTGCGGCTAG)”, which “recombinant barcode read abundance (log10)” value is on record?
The value was 0.0463.

For “CGTGCGGCTTGGGTTCTAACCTGTTGCCT (site CGTGCGGCTAG)”, which “recombinant barcode read abundance (log10)” value is on record?
The value was 0.486.

For “CGTGCGGCTTGGGTTCTAACCTGTTGCCT (site GGTGCGGCTAG)”, which “recombinant barcode read abundance (log10)” value is on record?
The value was 0.946.

Which “recombinant barcode read abundance (log10)” value does the source give for “CGTGCGGCTTGGGTTCTAACCTGTTGCCT (site TGTGCGGCTAG)” here?
The value was 0.0337.

For “CGTGCGTCTTGGGTTCTAACCTGTTGCCT (site AGTGCGTCTAG)”, which “recombinant barcode read abundance (log10)” value is on record?
The value was 0.208.

Which “recombinant barcode read abundance (log10)” value does the source give for “CGTGCGTCTTGGGTTCTAACCTGTTGCCT (site CGTGCGTCTAG)” here?
Its value is 0.918.

For “CGTGCGTCTTGGGTTCTAACCTGTTGCCT (site GGTGCGTCTAG)”, which “recombinant barcode read abundance (log10)” value is on record?
The value was 0.38.

Which “recombinant barcode read abundance (log10)” value does the source give for “CGTGCGTCTTGGGTTCTAACCTGTTGCCT (site TGTGCGTCTAG)” here?
Its value is 0.0337.

Which “recombinant barcode read abundance (log10)” value does the source give for “CGTGGGCCTTGGGTTCTAACCTGTTGCCT (site CATGGGCCTAG)” here?
The value was 0.295.
